ChEMBL document CHEMBL3400048, “N-acylated sulfonamide congeners of fosmidomycin lack any inhibitory activity against DXR” (Bioorg Med Chem Lett, 2015)
Active and inactive are the calls of the source.

Assays:
[1] = target: T1, 1-deoxy-D-xylulose 5-phosphate reductoisomerase (Escherichia coli K-12) (UniProt P45568); experiment: Inhibition of Escherichia coli DXR activity using DXP as substrate assessed as residual activity preincubated at 100 uM for 5 mins before substrate addition measured every 3 seconds for 180 seconds by spectrophotometric assay
T1 sequence (whole entry): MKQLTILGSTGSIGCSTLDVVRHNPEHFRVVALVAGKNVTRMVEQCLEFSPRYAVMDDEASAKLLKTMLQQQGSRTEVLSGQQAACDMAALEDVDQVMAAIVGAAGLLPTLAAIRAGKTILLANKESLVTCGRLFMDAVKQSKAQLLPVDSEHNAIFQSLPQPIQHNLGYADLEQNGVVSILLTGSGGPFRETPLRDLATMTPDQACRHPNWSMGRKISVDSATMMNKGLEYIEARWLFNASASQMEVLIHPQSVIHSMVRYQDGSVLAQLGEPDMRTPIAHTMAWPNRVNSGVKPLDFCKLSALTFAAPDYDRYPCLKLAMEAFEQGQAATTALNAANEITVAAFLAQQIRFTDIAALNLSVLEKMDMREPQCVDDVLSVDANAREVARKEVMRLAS

Trypanosoma brucei = experiment: Antimicrobial activity against Trypanosoma brucei at 64 uM; format: functional, organism-based
Trichophyton rubrum = experiment: Antimicrobial activity against Trichophyton rubrum at 64 uM; format: functional, organism-based
Leishmania infantum = experiment: Antimicrobial activity against Leishmania infantum at 64 uM; format: functional, organism-based
Escherichia coli = experiment: Antimicrobial activity against Escherichia coli at 64 uM; format: functional, organism-based
Trypanosoma cruzi = experiment: Antimicrobial activity against Trypanosoma cruzi at 64 uM; format: functional, organism-based
Candida albicans = experiment: Antimicrobial activity against Candida albicans at 64 uM; format: functional, organism-based
MRC5 = experiment: Cytotoxicity against human MRC5 cells at 64 uM; format: cell-based; conditions: mrc5, 64 µM
Pseudomonas aeruginosa = experiment: Antimicrobial activity against Pseudomonas aeruginosa at 64 uM; format: functional, organism-based
Aspergillus fumigatus = experiment: Antimicrobial activity against Aspergillus fumigatus at 64 uM; format: functional, organism-based
Staphylococcus aureus = experiment: Antimicrobial activity against Staphylococcus aureus at 64 uM; format: functional, organism-based
Plasmodium falciparum = experiment: Antimicrobial activity against Plasmodium falciparum K1 at 64 uM; format: functional, organism-based

Measured: Activity

CC(=O)N(O)CCCS(=O)(=O)NC(=O)CCc1ccccc1
100%: [1]
Non-toxic: MRC5
inactive: all other assays above

CC(=O)NS(=O)(=O)CCCN(O)C(C)=O
100%: [1]
Non-toxic: MRC5
inactive: all other assays above

CC(=O)N(O)CCCS(=O)(=O)NC(=O)c1ccccc1
Non-toxic: MRC5
100%: [1]
inactive: all other assays above

CC(=O)N(O)CCCS(=O)(=O)NC(=O)Cc1ccccc1
Non-toxic: MRC5
100%: [1]
inactive: all other assays above
